# Measurements reported in patent US20230278972A1, “SUBSTITUTED HALOALKYL SULFONANILIDE HERBICIDES” (FMC Corporation, priority 2020, published 2023).
# Columns and labels:
# Format in all cases: in vivo
# [1] = test system: barnyardgrass (Echinochloa crus-galli); assay: Test A preemergence, barnyardgrass; details: Preemergence; for Barnyardgrass plant response rating: 125 g ai/ha, visual injury on 0 to 100 scale (0 no effect, 100 complete control), approximately 10 days; for Plant response rating, Barnyardgrass: 500 g ai/ha, 0 to 100 scale (0 no effect, 100 complete control)
# Method in brief: (§1)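 Whole-plant herbicidal screen in pots of loam blended with sand. Sprays used a surfactant-containing, non-phytotoxic solvent vehicle. Timing was preemergence soil-directed at planting or postemergence at the one- to two-leaf stage (2–10 cm).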
# kochia (Bassia scoparia) [2] = assay: Test A preemergence, kochia; details: Preemergence; for Kochia plant response rating: 125 g ai/ha, visual injury on 0 to 100 scale (0 no effect, 100 complete control), approximately 10 days; for Plant response rating, Kochia: 500 g ai/ha, 0 to 100 scale (0 no effect, 100 complete control)
# Method in brief: as §1
# [3] = test system: ragweed (common ragweed, Ambrosia artemisiifolia); assay: Test A preemergence, ragweed; details: Preemergence; for Ragweed plant response rating: 125 g ai/ha, visual injury on 0 to 100 scale (0 no effect, 100 complete control), approximately 10 days; for Plant response rating, Ragweed: 500 g ai/ha, 0 to 100 scale (0 no effect, 100 complete control)
# Method in brief: as §1
# [4] = test system: Ryegrass, Italian (Italian ryegrass, Lolium multiflorum); assay: Test A preemergence, Ryegrass, Italian; details: Preemergence; for Ryegrass, Italian plant response rating: 125 g ai/ha, visual injury on 0 to 100 scale (0 no effect, 100 complete control), approximately 10 days; for Plant response rating, Ryegrass, Italian: 500 g ai/ha, 0 to 100 scale (0 no effect, 100 complete control)
# Method in brief: as §1
# [5] = test system: Foxtail, Giant (giant foxtail, Setaria faberi); assay: Test A preemergence, Foxtail, Giant; details: Preemergence; for Foxtail, Giant plant response rating: 125 g ai/ha, visual injury on 0 to 100 scale (0 no effect, 100 complete control), approximately 10 days; for Plant response rating, Foxtail, Giant: 500 g ai/ha, 0 to 100 scale (0 no effect, 100 complete control)
# Method in brief: as §1
# [6] = test system: pigweed (Amaranthus retroflexus); assay: Test A preemergence, pigweed; details: for Pigweed plant response rating: 125 g ai/ha, visual injury on 0 to 100 scale (0 no effect, 100 complete control), approximately 10 days; for Plant response rating, Pigweed: 500 g ai/ha, 0 to 100 scale (0 no effect, 100 complete control)
# Method in brief: (§2)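 Compounds in non-phytotoxic solvent with surfactant. Soil: loam/sand. Preemergence via directed soil spray after seeding; postemergence on seedlings 2–10 cm, one- to two-leaf.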
# [7] = test system: barnyardgrass (Echinochloa crus-galli); assay: Test A postemergence, barnyardgrass; details: Postemergence, 0 to 100 scale (0 no effect, 100 complete control); for Plant response rating, Barnyardgrass: 125 g ai/ha, visual injury approx. 10 days; for Barnyardgrass plant response rating: 500 g ai/ha, visual injury vs untreated controls after approx. 10 days
# Method in brief: as §2
# kochia (Bassia scoparia) [8] = assay: Test A postemergence, kochia; details: Postemergence, 0 to 100 scale (0 no effect, 100 complete control); for Plant response rating, Kochia: 125 g ai/ha, visual injury approx. 10 days; for Kochia plant response rating: 500 g ai/ha, visual injury vs untreated controls after approx. 10 days
# Method in brief: as §1
# [9] = test system: ragweed (common ragweed, Ambrosia artemisiifolia); assay: Test A postemergence, ragweed; details: Postemergence, 0 to 100 scale (0 no effect, 100 complete control); for Plant response rating, Ragweed: 125 g ai/ha, visual injury approx. 10 days; for Ragweed plant response rating: 500 g ai/ha, visual injury vs untreated controls after approx. 10 days
# Method in brief: as §1
# [10] = test system: Ryegrass, Italian (Italian ryegrass, Lolium multiflorum); assay: Test A postemergence, Ryegrass, Italian; details: Postemergence, 0 to 100 scale (0 no effect, 100 complete control); for Plant response rating, Ryegrass, Italian: 125 g ai/ha, visual injury approx. 10 days; for Ryegrass, Italian plant response rating: 500 g ai/ha, visual injury vs untreated controls after approx. 10 days
# Method in brief: as §1
# [11] = test system: Foxtail, Giant (giant foxtail, Setaria faberi); assay: Test A postemergence, Foxtail, Giant; details: Postemergence, 0 to 100 scale (0 no effect, 100 complete control); for Plant response rating, Foxtail, Giant: 125 g ai/ha, visual injury approx. 10 days; for Foxtail, Giant plant response rating: 500 g ai/ha, visual injury vs untreated controls after approx. 10 days
# Method in brief: as §1
# [12] = test system: pigweed (Amaranthus retroflexus); assay: Test A postemergence, pigweed; details: Postemergence, 0 to 100 scale (0 no effect, 100 complete control); for Plant response rating, Pigweed: 125 g ai/ha, visual injury approx. 10 days; for Pigweed plant response rating: 500 g ai/ha, visual injury vs untreated controls after approx. 10 days
# Method in brief: as §1
# [13] = test system: wheat (Triticum aestivum); assay: Test A postemergence, wheat; details: Postemergence, 0 to 100 scale (0 no effect, 100 complete control); for Plant response rating, Wheat: 125 g ai/ha, visual injury approx. 10 days; for Wheat plant response rating: 500 g ai/ha, visual injury vs untreated controls after approx. 10 days
# Method in brief: as §2
# corn (Zea mays) = assay: Test A postemergence, corn; details: Postemergence, 0 to 100 scale (0 no effect, 100 complete control); for Plant response rating, Corn: 125 g ai/ha, visual injury approx. 10 days; for Corn plant response rating: 500 g ai/ha, visual injury vs untreated controls after approx. 10 days
# Method in brief: as §1
# [14] = test system: blackgrass (Alopecurus myosuroides); assay: Test A postemergence, blackgrass; details: Postemergence, 0 to 100 scale (0 no effect, 100 complete control); for Plant response rating, Blackgrass: 125 g ai/ha, visual injury approx. 10 days; for Blackgrass plant response rating: 500 g ai/ha, visual injury vs untreated controls after approx. 10 days
# Method in brief: as §1
# [15] = test system: galium (catchweed bedstraw, Galium aparine); assay: Test A postemergence, galium; details: Postemergence, 0 to 100 scale (0 no effect, 100 complete control); for Plant response rating, Galium: 125 g ai/ha, visual injury approx. 10 days; for Galium plant response rating: 500 g ai/ha, visual injury vs untreated controls after approx. 10 days
# Method in brief: as §2
Compound,Barnyardgrass plant response rating [1],"Plant response rating, Barnyardgrass [1]",Kochia plant response rating (kochia (Bassia scoparia) [2]),"Plant response rating, Kochia (kochia (Bassia scoparia) [2])",Ragweed plant response rating [3],"Plant response rating, Ragweed [3]","Ryegrass, Italian plant response rating [4]","Plant response rating, Ryegrass, Italian [4]","Foxtail, Giant plant response rating [5]","Plant response rating, Foxtail, Giant [5]",Pigweed plant response rating [6],"Plant response rating, Pigweed [6]","Plant response rating, Barnyardgrass [7]",Barnyardgrass plant response rating [7],"Plant response rating, Kochia (kochia (Bassia scoparia) [8])",Kochia plant response rating (kochia (Bassia scoparia) [8]),"Plant response rating, Ragweed [9]",Ragweed plant response rating [9],"Plant response rating, Ryegrass, Italian [10]","Ryegrass, Italian plant response rating [10]",other results
COC(=O)N(c1cc(-c2ccnn(C)c2=O)c(C)cc1C)S(=O)(=O)C(F)(F)F [Compound 53],0,0,0,0,0,40,0,0,0,0,0,0,0,0,0,0,20,20,0,0,"Plant response rating, Foxtail, Giant [11]: 0; Foxtail, Giant plant response rating [11]: 0; Plant response rating, Pigweed [12]: 0; Pigweed plant response rating [12]: 0; Plant response rating, Wheat [13]: 0; Wheat plant response rating [13]: 0; Plant response rating, Corn (corn (Zea mays)): 0; Corn plant response rating (corn (Zea mays)): 0; Plant response rating, Blackgrass [14]: 0; Blackgrass plant response rating [14]: 0; Plant response rating, Galium [15]: 50; Galium plant response rating [15]: 80"
COc1cnn(-c2cc(NS(=O)(=O)C(F)(F)F)c(C)cc2C)c(=O)c1 [Compound 54],0,0,60,90,50,90,0,20,0,10,40,90,0,10,60,80,80,90,40,40,"Plant response rating, Foxtail, Giant [11]: 0; Foxtail, Giant plant response rating [11]: 0; Plant response rating, Pigweed [12]: 40; Pigweed plant response rating [12]: 70; Plant response rating, Wheat [13]: 0; Wheat plant response rating [13]: 0; Plant response rating, Corn (corn (Zea mays)): 0; Corn plant response rating (corn (Zea mays)): 10; Plant response rating, Blackgrass [14]: 0; Blackgrass plant response rating [14]: 0; Plant response rating, Galium [15]: 60; Galium plant response rating [15]: 90"
CCn1nccc(-c2cc(NS(=O)(=O)C(F)(F)F)c(C)cc2F)c1=O [Compound 55],0,100,80,80,20,90,70,90,60,100,70,90,30,40,60,80,20,40,50,60,"Plant response rating, Foxtail, Giant [11]: 20; Foxtail, Giant plant response rating [11]: 90; Plant response rating, Pigweed [12]: 20; Pigweed plant response rating [12]: 70; Plant response rating, Wheat [13]: 20; Wheat plant response rating [13]: 70; Plant response rating, Corn (corn (Zea mays)): 0; Corn plant response rating (corn (Zea mays)): 50; Plant response rating, Blackgrass [14]: 0; Blackgrass plant response rating [14]: 20; Plant response rating, Galium [15]: 90; Galium plant response rating [15]: 90"
CC(=O)N(c1cc(-c2ccnn(C)c2=O)c(C)cc1C)S(=O)(=O)C(F)(F)F [Compound 56],100,100,40,100,70,90,100,100,0,20,40,90,90,90,50,60,60,90,0,80,"Plant response rating, Foxtail, Giant [11]: 90; Foxtail, Giant plant response rating [11]: 90; Plant response rating, Pigweed [12]: 40; Pigweed plant response rating [12]: 40; Plant response rating, Wheat [13]: 50; Wheat plant response rating [13]: 70; Plant response rating, Corn (corn (Zea mays)): 10; Corn plant response rating (corn (Zea mays)): 80; Plant response rating, Blackgrass [14]: 50; Blackgrass plant response rating [14]: 50; Plant response rating, Galium [15]: 90; Galium plant response rating [15]: 90"
Cc1cc(C)c(-c2ccnn(CC(F)(F)F)c2=O)cc1NS(=O)(=O)C(F)(F)F [Compound 57],100,100,60,60,40,70,90,90,100,100,50,80,40,90,0,20,0,30,30,90,"Plant response rating, Foxtail, Giant [11]: 30; Foxtail, Giant plant response rating [11]: 90; Plant response rating, Pigweed [12]: 0; Pigweed plant response rating [12]: 50; Plant response rating, Wheat [13]: 60; Wheat plant response rating [13]: 70; Plant response rating, Corn (corn (Zea mays)): 30; Corn plant response rating (corn (Zea mays)): 80; Plant response rating, Blackgrass [14]: 0; Blackgrass plant response rating [14]: 70; Plant response rating, Galium [15]: 80; Galium plant response rating [15]: 90"
CCCn1nccc(-c2cc(NS(=O)(=O)C(F)(F)F)c(C)cc2C)c1=O [Compound 58],100,100,0,80,0,0,70,100,100,100,0,50,20,90,0,20,0,20,0,60,"Plant response rating, Foxtail, Giant [11]: 30; Foxtail, Giant plant response rating [11]: 90; Plant response rating, Pigweed [12]: 0; Pigweed plant response rating [12]: 0; Plant response rating, Wheat [13]: 20; Wheat plant response rating [13]: 70; Plant response rating, Corn (corn (Zea mays)): 20; Corn plant response rating (corn (Zea mays)): 50; Plant response rating, Blackgrass [14]: 0; Blackgrass plant response rating [14]: 30; Plant response rating, Galium [15]: 80; Galium plant response rating [15]: 90"
Cc1ccc(-c2ccnn(C)c2=O)cc1NS(=O)(=O)C(F)(F)F [Compound 59],0,90,40,90,0,30,0,60,20,70,30,60,0,80,50,70,20,60,0,60,"Plant response rating, Foxtail, Giant [11]: 10; Foxtail, Giant plant response rating [11]: 70; Plant response rating, Pigweed [12]: 0; Pigweed plant response rating [12]: 60; Plant response rating, Wheat [13]: 0; Wheat plant response rating [13]: 40; Plant response rating, Corn (corn (Zea mays)): 10; Corn plant response rating (corn (Zea mays)): 40; Plant response rating, Blackgrass [14]: 0; Blackgrass plant response rating [14]: 70; Plant response rating, Galium [15]: 80; Galium plant response rating [15]: 90"
